Assay results: US11957761B2, “Compounds having α4β7 integrin inhibition activity” (priority 2021, dated 2024)

Tests used:
Integrin α4β7-MAdCAM-1 = Integrin α4β7-MAdCAM-1 (Homo sapiens, UniProt P13612+P26010); experiment: cell-based
Experimental: Recombinant human MAdCAM-1 (rhMAdCAM-1) was obtained from R&D systems (Cat #6056-MC-050).
Binding buffer (1.5 mM CaCl2, 1 mM MnCl2, 100 mM NaCl, 50 mM TRIS-HCl (pH 7.5)
Cells: The human B lymphocyte cell line RPMI 8866 was obtained from Merck via ECACC (European collection of authenticated cell cultures) (Cat #95041316 and lot #14G012).
Day 0: RPMI 8866 cells were split to a concentration of 500.000 cells/mL.
A Maxisorp plate was coated with 100 μL/well of 1 μg/mL rhMAdCAM-1 in coating buffer. Plate was sealed with TopSeal A plus and incubated at 4° C. overnight.
Day 1: The plate was washed twice with 150 μL wash buffer and then blocked with 250 μL/well blocking buffer (1% BSA in PBS) for one hour at room temperature. CFSE Celltrace stock solution was prepared immediately prior to use by adding 18 μL of DMSO to one vial of CellTrace™ reagent and mixing well. […]
The cells were pelleted by centrifugation and resuspended in fresh pre-warmed complete culture medium and the cells were counted. […]
After the last wash, 100 μL of PBS (without Mg^2+ and Ca^2+) was added to each well and the fluorescence was read (Ex485/Em535) using a plate reader (Envision 2105 Multimode plate reader). To calculate the concentration response, the fluorescence value of control wells not containing cells was subtracted from each test well.
IC50 values were calculated using 4-parameter nonlinear fit of the data.

[1] = Pharmacokinetics in Beagle dogs, single s.c. and i.v. injection (Example 5); type: in vivo; conditions: male, plasma, 200 ug/kg, dog
Text: The dosing vehicle was PBS buffer, pH 7.

in vivo [2] = conditions: male, Beagle, dog, plasma, sc
Experimental: Beagle dogs (males with a body weight of approximately 10-12 kg) were given a single subcutaneous (s.c.) injection of the peptides to be tested. Following s.c. administration of the selected compounds (dose 10, 20, 50, 100, 200 and 400 μg/kg), dosing volume 0.1 m/kg, blood samples were drawn at 0, 3, 6, 8, 12, 24, 48, 72, 96, 120, 144, 168, 192, 216, 240, 264, 288, 312, 336, 576, 744, 936, 1104 and 1272 hours.
Blood was sampled through a venflon on day 1 (excluding the 8-hour timepoint). At the 8-hour sampling time, and the sampling timepoints hereafter, the blood was be sampled through v. jugularis with a vacutainer and vacutainer needle. The dosing vehicle was PBS buffer, pH 7.
(§1) Plasma samples were analyzed after protein precipitation by liquid chromatography mass spectrometry (LC-MS/MS). Individual plasma concentrations were used for calculation of the pharmacokinetic parameters using the non-compartmental approach in Phoenix WinNonlin 8.3 or a later version. Plasma terminal elimination half-life (T½) was determined as ln(2)/λz where λz is the magnitude of the slope of the log linear regression of the log concentration versus time profile during the terminal phase. AUCinf is the area under the plasma concentration−time curve extrapolated to infinity (AUCinf=AUClast+Clast/λz, where Clast is the last observed plasma concentration). C0 is back extrapolated by log-linear regression of the first two data points.

in vivo [3] = conditions: male, rat, plasma, iv, 510 nmol/kg
Experimental: Sprague Dawley or Wistar rats (males with a body weight of approximately 250-350 g) were given a single intravenous (i.v. bolus) injection of the peptide to be tested. Following i.v. administration of compound 1 (dose 510 nmol/kg, dosing volume […]), blood samples were drawn at 10 min, 15 min, 40 min, 1 h, 2 h, 4 h, 8 h, 24 h post-dose. At each sampling time point, samples from the rats were drawn by tail cut. The dosing vehicle was 20 mM phosphate buffer, 260 mM mannitol, pH 7.
as §1, with “C0 is the plasma concentration at the dosing time intercept and is back extrapolated” for “C0 is back extrapolated”

[4] = Pharmacokinetics in rats, single i.v. bolus (Example 11); type: in vivo, Sprague Dawley or Wistar rats; conditions: male, plasma, iv, rat, 511 nmol/kg
Experimental: Sprague Dawley or Wistar rats (males with a body weight of approximately 250-350 g) were given a single intravenous (i.v. bolus) injection of the peptide to be tested. […] At each sampling time point, samples from the rats were drawn by tail cut. The dosing vehicle was 20 mM phosphate buffer, 260 mM mannitol, pH 7.
Plasma samples were analyzed after protein precipitation by liquid chromatography mass spectrometry (LC-MS/MS). Individual plasma concentrations were used for calculation of the pharmacokinetic parameters using the non-compartmental approach in Phoenix WinNonlin 8.3 or a later version. Plasma terminal elimination half-life (T½) was determined as ln(2)/λz where λz is the magnitude of the slope of the log linear regression of the log concentration versus time profile during the terminal phase. AUCinf is the area under the plasma concentration−time curve extrapolated to infinity (AUCinf=AUClast+Clast/λz, where Clast is the last observed plasma concentration). C0 is the plasma concentration at the dosing time intercept and is back extrapolated by log-linear regression of the first two data points.

Integrin α4β7-MAdCAM-1, sequence (P13612 34-1032): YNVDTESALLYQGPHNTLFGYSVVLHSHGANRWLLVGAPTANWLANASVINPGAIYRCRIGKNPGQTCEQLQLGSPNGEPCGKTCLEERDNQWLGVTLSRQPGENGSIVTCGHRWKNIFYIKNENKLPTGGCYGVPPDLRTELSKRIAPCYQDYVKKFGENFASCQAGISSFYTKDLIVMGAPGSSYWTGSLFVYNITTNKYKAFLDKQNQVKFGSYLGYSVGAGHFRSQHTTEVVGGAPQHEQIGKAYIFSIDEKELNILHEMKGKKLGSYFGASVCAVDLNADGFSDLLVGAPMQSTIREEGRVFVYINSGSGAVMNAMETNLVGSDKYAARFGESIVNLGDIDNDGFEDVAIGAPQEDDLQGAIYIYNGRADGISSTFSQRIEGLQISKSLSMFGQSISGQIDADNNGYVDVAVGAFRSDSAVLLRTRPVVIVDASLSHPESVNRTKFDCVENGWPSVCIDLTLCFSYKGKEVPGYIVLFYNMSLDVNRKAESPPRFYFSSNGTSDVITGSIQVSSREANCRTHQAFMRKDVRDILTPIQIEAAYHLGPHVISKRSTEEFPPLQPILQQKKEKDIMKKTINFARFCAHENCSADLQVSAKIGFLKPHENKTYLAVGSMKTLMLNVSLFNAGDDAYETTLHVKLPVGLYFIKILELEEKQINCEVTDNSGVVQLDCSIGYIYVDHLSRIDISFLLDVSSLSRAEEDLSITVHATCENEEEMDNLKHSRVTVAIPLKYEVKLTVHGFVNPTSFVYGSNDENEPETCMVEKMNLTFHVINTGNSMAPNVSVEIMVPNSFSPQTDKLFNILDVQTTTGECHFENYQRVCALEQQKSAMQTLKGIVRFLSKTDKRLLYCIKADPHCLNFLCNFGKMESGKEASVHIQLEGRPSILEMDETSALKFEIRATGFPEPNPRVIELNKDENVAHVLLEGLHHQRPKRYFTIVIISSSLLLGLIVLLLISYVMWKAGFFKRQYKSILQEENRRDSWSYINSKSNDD
Integrin α4β7-MAdCAM-1, sequence (P26010 20-798): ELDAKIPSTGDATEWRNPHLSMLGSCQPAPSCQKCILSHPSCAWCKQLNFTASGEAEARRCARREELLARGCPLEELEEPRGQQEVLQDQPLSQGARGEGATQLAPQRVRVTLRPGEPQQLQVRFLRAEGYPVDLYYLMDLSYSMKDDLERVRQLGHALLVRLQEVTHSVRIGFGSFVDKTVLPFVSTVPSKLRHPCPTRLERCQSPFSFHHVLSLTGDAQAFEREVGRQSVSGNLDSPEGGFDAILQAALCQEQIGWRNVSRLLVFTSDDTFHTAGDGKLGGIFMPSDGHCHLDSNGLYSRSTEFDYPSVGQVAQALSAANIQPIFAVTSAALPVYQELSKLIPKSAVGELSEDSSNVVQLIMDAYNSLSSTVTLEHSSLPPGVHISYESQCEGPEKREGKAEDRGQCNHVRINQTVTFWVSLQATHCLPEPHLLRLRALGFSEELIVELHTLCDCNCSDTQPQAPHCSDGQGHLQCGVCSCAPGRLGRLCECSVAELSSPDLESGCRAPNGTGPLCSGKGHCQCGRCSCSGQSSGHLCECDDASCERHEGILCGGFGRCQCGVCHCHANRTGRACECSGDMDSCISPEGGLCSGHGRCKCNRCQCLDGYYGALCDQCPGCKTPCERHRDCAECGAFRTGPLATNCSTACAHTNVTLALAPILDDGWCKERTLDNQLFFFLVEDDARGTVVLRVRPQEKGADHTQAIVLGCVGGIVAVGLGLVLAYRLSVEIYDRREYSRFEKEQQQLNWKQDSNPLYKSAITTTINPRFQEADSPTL

Structure (SMILES): CC[C@H](C)[C@@H]1NC(=O)[C@H](CC(=O)O)NC(=O)[C@H](CC(C)C)NC(=O)c2ccc(-c3ccc(N4CCN(C(=O)c5ccccc5-c5ccccc5C(=O)N5CCN(c6ccc(-c7ccc8cc7CNC(=O)[C@@H]7CCCN7[C@H](C(=O)NC(C)(C)C)[C@H](C)NC(=O)[C@H]([C@@H](C)CC)NC(=O)[C@H](CC(=O)O)NC(=O)[C@H](CC(C)C)NC8=O)cc6)CC5)CC4)cc3)c(c2)CNC(=O)[C@@H]2CCCN2[C@H](C(=O)NC(C)(C)C)[C@H](C)NC1=O [Compound 1, 2,2′-((S,S,S,S,S,S,12S,8S, 11S,14S,17S,18S)-((([1,1′-biphenyl]-2,2′-dicarbonyl)bis(piperazine-4,1-diyl))bis(4,1-phenylene))bis(14-((S)-sec-butyl)-18-(tert-butylcarbamoyl)-8-isobutyl-17-methyl-2,6,9,12,15-pentaoxo-3,7,10,13,16-pentaaza-1(2,1)-pyrrolidina-5(1,3)-benzenacyclooctadecaphane-56,11-diyl))diacetic acid]
- IC50 (Integrin α4β7-MAdCAM-1): 35 nM
- AUC(0-inf) ([1]; IV): 19.3 µM·h
- Cmax ([1]; IV): 743 nM
- half-life ([1]; IV): 53 h
- AUC(0-inf) ([1]; SC): 21.8 µM·h
- Cmax ([1]; SC): 127 nM
- half-life ([1]; SC): 95.2 h
- AUC(0-inf) (in vivo [2]; 10 ug/kg): 2.46 µM·h
- Cmax (in vivo [2]; 10 ug/kg): 18.1 nM
- Tmax (in vivo [2]; 10 ug/kg): 20 h
- half-life (in vivo [2]; 10 ug/kg): 340 h
- AUC(0-inf) (in vivo [2]; 20 ug/kg): 5.68 µM·h
- Cmax (in vivo [2]; 20 ug/kg): 43.1 nM
- Tmax (in vivo [2]; 20 ug/kg): 20 h
- half-life (in vivo [2]; 20 ug/kg): 460 h
- AUC(0-inf) (in vivo [2]; 50 ug/kg): 11.6 µM·h
- Cmax (in vivo [2]; 50 ug/kg): 102 nM
- Tmax (in vivo [2]; 50 ug/kg): 20 h
- half-life (in vivo [2]; 50 ug/kg): 340 h
- AUC(0-inf) (in vivo [2]; 100 ug/kg): 58.6 µM·h
- Cmax (in vivo [2]; 100 ug/kg): 504 nM
- Tmax (in vivo [2]; 100 ug/kg): 20 h
- half-life (in vivo [2]; 100 ug/kg): 230 h
- AUC(0-inf) (in vivo [2]; 200 ug/kg): 72.5 µM·h
- Cmax (in vivo [2]; 200 ug/kg): 417 nM
- Tmax (in vivo [2]; 200 ug/kg): 20 h
- half-life (in vivo [2]; 200 ug/kg): 230 h
- AUC(0-inf) (in vivo [2]; 400 ug/kg): 158 µM·h
- Cmax (in vivo [2]; 400 ug/kg): 927 nM
- Tmax (in vivo [2]; 400 ug/kg): 20 h
- half-life (in vivo [2]; 400 ug/kg): 260 h
- AUC(0-inf) (in vivo [3]): 32.2 µM·h
- half-life (in vivo [3]): 5.61 h
- AUC(0-inf) [4]: 34 µM·h
- C0 [4]: 9020 nM
- half-life [4]: 7.88 h
